This is an account of results in patent publication US4935505A, “Novel azolo [1,3] diazepine-5-ol compounds and their uses” (priority 1988, dated 1990).

Where two headings read alike, the source gives them in different places.

The target of one series is adenosine deaminase (Homo sapiens, UniProt P00813). The series is described as follows: Inhibition of adenosine deaminase (ADA), adenosine as substrate, purified enzyme. The format is biochemical. The source says:
The mixture of the R and S isomers of the 4,5,6-trihydro-1-(β-D-ribofuranosyl) pyrazolo [5,4-d]

For series [1], the system named is human erythrocytic adenosine deaminase. The conditions noted are these: cited from earlier work.
For series [2] the following is noted: clinical trials; cited from earlier work.
Where [3] appears, read: Inhibition of Adenosine Deaminase by Target Compounds, adenosine as substrate, purified enzyme, read-out: Ki.

adenosine deaminase, sequence (P00813 whole entry): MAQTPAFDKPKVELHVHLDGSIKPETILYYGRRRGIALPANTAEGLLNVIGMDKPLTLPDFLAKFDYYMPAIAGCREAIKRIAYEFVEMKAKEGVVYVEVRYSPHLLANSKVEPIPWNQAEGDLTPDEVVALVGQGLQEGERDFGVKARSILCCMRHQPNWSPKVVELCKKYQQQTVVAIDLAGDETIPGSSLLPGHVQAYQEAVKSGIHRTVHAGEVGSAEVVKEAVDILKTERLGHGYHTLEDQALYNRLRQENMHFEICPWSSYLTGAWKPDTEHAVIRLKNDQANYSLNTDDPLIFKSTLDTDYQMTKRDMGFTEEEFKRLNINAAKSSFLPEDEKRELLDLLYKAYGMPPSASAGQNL

In general, Ki refers to a measure of affinity in units of concentration, obtained from inhibition or displacement. Consider `OC[C@H]1O[C@@H](n2ncc3c2N=CNCC3O)[C@H](O)[C@@H]1O` (mixture of isomers) [(3 + 26), 4,5,6-Tihydro-1-(β-D-ribofuranosyl)pyrazolo [5,4-d]-[1,3] diazepin-4(R,S)-ol], for which the Ki at adenosine deaminase (setting [3]) was determined as 2000 nM.

In the case of `OC[C@H]1O[C@@H](n2cnc3c2N=CNC[C@H]3O)[C@H](O)[C@@H]1O` [2, coformycin, reference compound], the tight binding inhibition entry in series [1] is listed as “exceedingly tight binding inhibitors”. The Ki on adenosine deaminase amounted to 0.12 nM.

Turning to `OC[C@H]1O[C@@H](n2nnc3c2N=CNC[C@H]3O)[C@H](O)[C@@H]1O` [4 (R), 6,7,8-Trihydro-3-β-D-ribofuranosyl-v-triazole [4,5-d] [1,3] diazepin-8(R,S)-ol], the inhibitory constant (Ki) on adenosine deaminase (Preliminary estimates based on conventional kinetic analysis, adenosine as substrate, purified enzyme, read-out: Ki) was 2 nM. In addition, the “type of inhibition of ADA” value on adenosine deaminase (adenosine as substrate, purified enzyme, listed as Compound 4) is reported as “very tight-bindinginhibitor”; at adenosine deaminase (adenosine as substrate, purified enzyme, listed as compound 4), “potent tight-binding inhibitor”.

On to `OC[C@H]1O[C@@H](n2nnc3c2N=CNC[C@@H]3O)[C@H](O)[C@@H]1O` [37 (S), 6,7,8-Trihydro-3-β-D-ribofuranosyl-v-triazole [4,5-d] [1,3] diazepin-8(R,S)-ol], for which, at adenosine deaminase (setting [3]), the Ki came out at 85000 nM.

Consider `OC[C@H]1O[C@@H](n2cnc3c2NC=NC[C@H]3O)C[C@@H]1O` [pentostatin, 8(R)-3-(2-deoxy-β-D-erythro-pentofuranosyl)-3,6,7,8-tetrahydroimidazo[4,6-d][1,3]diazepin-8-ol], for which, in series [2], the acute renal toxicity entry is reported as “acute renal toxicity”. Also, the tight binding inhibition entry in series [1] was “exceedingly tight binding inhibitors”.
